From patent publication US12496287B2, “Compositions and methods for treating macrophage activation syndrome” (THE CHILDREN'S HOSPITAL OF PHILADELPHIA, priority 2019, dated 2025)
Where a name gives a salt, the structure may show the parent alone.

What was measured:
[1] = low dose CO (100-125 ppm); patients with idiopathic pulmonary fibrosis or COPD; cited from earlier work
[2] = test system: Nrf2/HO-1; test: MMF induction of Nrf2 and HO-1 in macrophages of injected mice (Western blot); assay type: in vivo, mouse
Procedure: MAS was induced by repeated activation of TLR9 as described (Behrens, et al. (2011) J. Clin. Invest., 121(6):2264-77; Weaver, et al. (2016) Proc. Natl. Acad. Sci., 113(39):10944-9). Briefly, 8-week old mice were injected with five doses of PBS or 50 μg of CpG1826 intraperitoneally every other day for 9 days, while MMF (cat no: 4511, TOCRIS (Bristol, UK)) in DMSO was injected at 45 mg/Kg body weight based on standard dosing used in other murine studies (Cho, et al. (2015) J. Neuroinflammation 12:239; Yao, et al. (2016) Transl. Stroke Res., 7(6):535-47), every day once in the morning and once in the evening. The control group received DMSO instead of MMF. […] Spleens and livers were harvested and were formalin fixed followed by paraffin embedment for tissue sectioning and slide preparation for histology and immunohistochemistry (IHC). To obtain single suspension of spleen leukocytes, spleens at 37° C. were disrupted and incubated in the presence of DNAase and collagenase, followed by filtering over 70-μm strainers and RBC lysis. The cells were counted and then adhered for 2 hours on petri dishes to obtain plastic adherent macrophages.
Protein samples (10-12 μg) were resolved by SDS-PAGE on 4-12% Bis-Tris gels (Invitrogen), electrotransferred to nitrocellulose membranes (Cat no. 10484060, Bio-Rad (Hercules, CA)), and assessed for the immunosignal of proteins using the antibodies against HO-1 (cat no. ADI-SPA-896, Enzo (Farmingdale, NY)), Nrf2 (Cat no. 12721, Cell Signaling (Danvers, MA)), Erk (Cat no. 4695, Cell signaling), pErk (Cat no. 4379, Cell Signaling), Cyclophilin B (CyPB, Cat no. PA1-027A, ThermoFisher Scientific), β tubulin (Cat no. 2146, Cell Signaling), β actin (Cat No. 66009-1-Ig, Proteintech (Rosemont, IL)), Calnexin (Cat no. ab22595, abcam (Cambridge, UK) and Histone 3 (Cat no. 4499, Cell Signaling). Fluorescence tagged respective secondary antibodies obtained from Li-COR (Lincoln, Neb.)—Goat-anti-Rabbit-antibody (IRDye® 800CW), or Donkey-anti-mouse-antibody (IRDye® 800CW) or Donkey anti-Mouse IgG (IRDye® 680RD) were then used. […]

[3] = test system: TLR9-MAS murine model; test: TLR9-MAS murine model (repeated CpG), MMF treatment, C57BL/6 mice; assay type: in vivo, mouse
Procedure: (§1) MAS was induced by repeated activation of TLR9 as described (Behrens, et al. (2011) J. Clin. Invest., 121(6):2264-77; Weaver, et al. (2016) Proc. Natl. Acad. Sci., 113(39):10944-9). Briefly, 8-week old mice were injected with five doses of PBS or 50 μg of CpG1826 intraperitoneally every other day for 9 days, while MMF (cat no: 4511, TOCRIS (Bristol, UK)) in DMSO was injected at 45 mg/Kg body weight based on standard dosing used in other murine studies (Cho, et al. (2015) J. Neuroinflammation 12:239; Yao, et al. (2016) Transl. Stroke Res., 7(6):535-47), every day once in the morning and once in the evening. The control group received DMSO instead of MMF. On day-10 mice were euthanized 24 hours after the last MMF injection, bled terminally to collect blood for complete blood count (CBC) and differential count, and serum for cytokine analysis by ELISA. Spleens and livers were harvested and were formalin fixed followed by paraffin embedment for tissue sectioning and slide preparation for histology and immunohistochemistry (IHC). To obtain single suspension of spleen leukocytes, spleens at 37° C. were disrupted and incubated in the presence of DNAase and collagenase, followed by filtering over 70-μm strainers and RBC lysis. The cells were counted and then adhered for 2 hours on petri dishes to obtain plastic adherent macrophages. TLR9 activation induced cytokines from cells supernatants and serum were measured by using the ELISA kits from BD OptEIA™ (Cat nos. IL-12: 555256, IL-10: 555252, TNFα: 555268 and IL-6: 555240; Franklin Lakes, NJ).

[4] = test system: TLR9-MAS; test: TLR9-MAS in HMOX1^WT and HMOX1^fl/fl mice, MMF treatment; assay type: in vivo, mouse
Description: C57BL/6 (WT) and LysM-Cre mice were purchased from The Jackson Laboratory (Bar Harbor, ME). HMOX1^fl/fl mice were crossbred with LysM-Cre mice and genotyped regularly to obtain mice with deletion of the HO-1 gene in myeloid lineage and are designated as: HMOX1^WT (intact HO-1), HMOX1^WT/fl (x LysM-cre, HO-1-haplodeficient,), and HMOX1^fl/fl (x LysM-Cre, complete HO-1-deficiency).
as §1, with “macrophages.” for “macrophages. TLR9 activation induced cytokines from cells supernatants and serum were measured by using the ELISA kits from BD OptEIA™ (Cat nos. IL-12: 555256, IL-10: 555252, TNFα: 555268 and IL-6: 555240; Franklin Lakes, NJ).”
Slides from paraffin-embedded tissue sections were stained with hematoxylin and eosin or were immune-stained for HO-1 (cat no. ADI-SPA-896, Enzo), followed by nuclear stain using prolong gold antifade reagent with Dapi (P36931, Invitrogen (Carlsbad, CA)). Images were acquired on an Eclipse 90i microscope (Nikon (Melville, NY)) using NIS-ELEMENTS software.
(§2) TLR9 activation induced cytokines from cells supernatants and serum were measured by using the ELISA kits from BD OptEIA™ (Cat nos. IL-12: 555256, IL-10: 555252, TNFα: 555268 and IL-6: 555240; Franklin Lakes, NJ).

[5] = molecular target: T1, HO-1 (Mus musculus, UniProt P14901); test: Cytokines in supernatants of CpG-stimulated BMDMs treated with ZnPP and/or CORM2 (ELISA); assay type: cell-based
T1 construct: endogenous in cells; host or cells: mouse bone marrow derived macrophages (BMDM)
T1 sequence (P14901 1-289): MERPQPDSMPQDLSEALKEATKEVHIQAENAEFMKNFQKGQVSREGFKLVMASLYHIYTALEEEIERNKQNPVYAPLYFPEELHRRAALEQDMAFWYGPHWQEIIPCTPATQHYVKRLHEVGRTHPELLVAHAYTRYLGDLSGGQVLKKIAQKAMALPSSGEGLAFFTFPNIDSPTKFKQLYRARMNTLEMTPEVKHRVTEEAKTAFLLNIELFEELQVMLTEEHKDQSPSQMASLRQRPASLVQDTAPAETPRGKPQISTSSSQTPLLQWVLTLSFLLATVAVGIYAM
Procedure: Bone marrow (BM) was extracted from the hind limbs of mice and filtered over a 70-μm strainer to obtain a single cell suspension, followed by RBC lysis. Bone marrow derived macrophages (BMDM) were derived by culture in M-CSF-enriched media of L929 cells. RAW264.7 cells were obtained from ATCC (Manassas, VA). Class B CpG1826 oligonucleotide was synthesized by Integrated DNA Technologies (Coralville, IA). Macrophages were treated with CpG (1 μg/ml) for 18 to 20 hours for cytokine analysis in cell supernatant, and for 0 to 2 hours for analysis of protein expression level by Western blot treated as indicated.
as §2

[6] = test system: HO-1; test: Splenic HO-1 expression in vivo after repeated CpG treatment (IHC, Western blot); parameters: species or system mouse; settings: IFNγ alone, intraperitoneally, IFNγ-/- mice
Procedure: MAS was induced by repeated activation of TLR9 as described (Behrens, et al. (2011) J. Clin. Invest., 121(6):2264-77; Weaver, et al. (2016) Proc. Natl. Acad. Sci., 113(39):10944-9). Briefly, 8-week old mice were injected with five doses of PBS or 50 μg of CpG1826 intraperitoneally every other day for 9 days, while MMF (cat no: 4511, TOCRIS (Bristol, UK)) in DMSO was injected at 45 mg/Kg body weight based on standard dosing used in other murine studies (Cho, et al. (2015) J. Neuroinflammation 12:239; Yao, et al. (2016) Transl. Stroke Res., 7(6):535-47), every day once in the morning and once in the evening. The control group received DMSO instead of MMF. On day-10 mice were euthanized 24 hours after the last MMF injection, bled terminally to collect blood for complete blood count (CBC) and differential count, and serum for cytokine analysis by ELISA. Spleens and livers were harvested and were formalin fixed followed by paraffin embedment for tissue sectioning and slide preparation for histology and immunohistochemistry (IHC). To obtain single suspension of spleen leukocytes, spleens at 37° C. were disrupted and incubated in the presence of DNAase and collagenase, followed by filtering over 70-μm strainers and RBC lysis. The cells were counted and then adhered for 2 hours on petri dishes to obtain plastic adherent macrophages. […]

[7] = spleen plastic adherent macrophages, MMF i.p. every 12 hours, 3 doses, 4 hours after last dose
[8] = day 10, MMF twice a day, CpG every other day

For `[C-]#[O+]` [CO, carbon monoxide], the tolerability [1] is listed as “tolerated”.

For `COC(=O)/C=C/C(=O)O` [MMF, monomethyl fumarate], the “HO-1 expression in splenic and peritoneal macrophages” value ([2]; MMF treatment) was “increased”, the “HO-1 immunosignal relative to DMSO control” value [2, 7] was “significantly increased” and the “Nrf2 immunosignal relative to DMSO control” value [2, 7] was “significantly increased”. The cellularity in spleen ([3]; MMF + CpG) was “reduced cellularity”, the organomegaly of liver ([3]; MMF + CpG) was “reduced” and the organomegaly of spleen ([3]; MMF + CpG) was “reduced”. The “serum IL-10” value ([3]; day 10, MMF 45 mg/Kg twice a day, CpG every other day) was “significantly higher”, the “erythrocyte count in blood” value ([3]; day 10, MMF + CpG) was “corrected” and the “platelet count in blood” value ([3]; day 10, MMF + CpG) was “corrected”. The “serum IFNγ” value [3, 8] was “drop”, the “serum IL-12” value [3, 8] was “drop” and the “serum IL-10 elevation” value ([4]; CpG treated HMOX1^WT mice) was 3 fold. For the same molecule, the “serum IL-10 elevation effect” value ([4]; CpG treated HMOX1^fl/fl mice) was “completely lost”, the “serum IFNγ” value ([4]; CpG treated HMOX1 mice) was “unaffected” and the “serum IL-12” value ([4]; CpG treated HMOX1 mice, HO-1 independent) was “slightly reduced”. For the same molecule, the “recovery from anemia (RBC)” value ([4]; HMOX1^WT mice) was “almost complete recovery”, the “recovery from thrombocytopenia (platelets)” value ([4]; HMOX1^WT mice) was “almost complete recovery” and the hepatosplenomegaly ([4]; HMOX1^fl/fl mice) was “partially protected”. For the same molecule, the “recovery from anemia (RBC)” value ([4]; HMOX1^fl/fl mice) was “partial recovery”, the “recovery from thrombocytopenia (platelets)” value ([4]; HMOX1^fl/fl mice) was “partial recovery” and the “lobular inflammatory score (liver)” value ([4]; both WT and HMOX1^fl/fl mice) was “reduce”. The “portal inflammatory score (liver)” value ([4]; both WT and HMOX1^fl/fl mice) was “reduce” and the “histologic evidence of endothelial activation” value ([4]; independent of mouse genotype) was “reduce”.

For `[C-]#[O+].[C-]#[O+].[C-]#[O+].[C-]#[O+].[C-]#[O+].[C-]#[O+].[Cl][Ru][Cl].[Cl][Ru][Cl]` [CORM2, carbon monoxide-releasing molecule [CORM] 2], the IL-10 ([5]; CORM2 in BMDM not inhibited by ZnPP or genetically sufficient for HO-1) was “no additional effect”, the IL-10 ([5]; CORM2 in HMOX1^fl/fl BMDMs) was “rescue” and the IL-10 levels ([5]; CORM2 in ZnPP treated BMDMs, CpG 1 μg/ml) was “restored IL-10 levels to normal”.

With `C=CC1=C(C)c2cc3[n-]c(cc4nc(cc5[n-]c(cc1n2)c(C)c5C=C)C(C)=C4CCC(=O)O)c(CCC(=O)O)c3C.[Zn+2]` [ZnPP, zinc protoporphyrin] the “IL-6 in response to CpG” value ([5]; ZnPP 3 μM, BMDMs) was “increased levels”, the “TNFα in response to CpG” value ([5]; ZnPP 3 μM, BMDMs) was “increased levels” and the “production of IL-10” value ([5]; ZnPP 3 μM, BMDMs stimulated with CpG) was “substantially reduced”. For the same molecule, the IL-10 ([5]; ZnPP, CpG-treated HMOX1^WT BMDM) was “blocked” and the “residual IL-10” value ([5]; ZnPP, CpG-treated HMOX1^fl/fl BMDM) was “without showing any effect”.

B1: IFNγ: interferon gamma added back intraperitoneally to IFNγ-/- mice (protein, UniProt P01580 23-155, looked up)
Interferon gamma: HGTVIESLESLNNYFNSSGIDVEEKSLFLDIWRNWQKDGDMKILQSQIISFYLRLFEVLKDNQAISNNISVIESHLITTFFSNSKAKKDAFMSIAKFEVNNPQVQRQAFNELIRVVHQLLPESSLRKRKRSRC
With B1 the “HO-1 induction in spleen” value [6] was “did not induce HO-1”.
